In patent publication US20220347171A1, “TREATMENT OF PRURIGO NODULARIS” (TREVI THERAPEUTICS, INC., priority 2016, published 2022):
Where a name gives a salt, the structure may show the parent alone.

Tests used:
[1] = system: prurigo nodularis patients; test: TR03ext (Example 3), titrated 30 mg QD to 180 mg BID: itchy Verbal Rating Scale (VRS); format: in vivo, human; conditions: for VRS Itch Visit Mean (SD): Baseline 2.7 (0.8)
From the text: This clinical study was a Phase 2 Open Label Extension Study (clinical study TR03ext) of the randomized, double-blind, 3-parallel arm, placebo controlled dose ranging study described in Example 2. All those subjects who were randomized, and then completed Example 2 study, were eligible to participate in the Extension Study.
The primary endpoint was a description of the overall incidence and nature of Treatment-Emergent AEs (TEAES) during weeks 5-50 of the study. Exploratory efficacy endpoints included Change from Baseline patient reported outcome measures of Worst itch NRS, itchy VRS and ItchyQoL, by Treatment Period study visit and Baseline NRS score. There was also an assessment of any potential skin lesion changes over time using the metrics of the PAS.
Of the 63 patients that were randomized to the study of Example 2, 36 subjects who enrolled into Extension Study entered the Treatment Period of the study and were exposed to nalbuphine HCl ER tablet administration and are the basis of the study safety population analysis.
Patients in Extension Study were titrated over a dose range of 30 mg QD to 180 mg BID based on tolerability. The selected dose range was based on Example 2 study whereby patients were titrated from a 30 mg QD dose either to 30 mg BID, 60 mg BID, 90 mg BID, 120 mg BID or a 180 mg BID dose. The highest dose proposed was 180 mg BID (360 mg daily dose), and was well below the highest recommended daily treatment of 160 mg IV (equivalent to 960 mg oral) for the current marketed parenteral administered product.
The study duration for each patient was up to 52 weeks, with up to 50 weeks on study drug. The Extension Study consisted of a Treatment Period (that was followed by a Washout Safety Follow-up Period) and an Observation Period. Patients either entered directly into a drug Treatment Period (NRS >5) or a no-drug Observation Period (NRS ≤5) based on their reported NRS scores on the first Visit (Visit 1a). For up to 12 Extended Screening weeks, patients in the no-drug Observation Period could have also transitioned into the drug Treatment Period if their NRS increased to NRS >5. All patients entering the Treatment Period, whether immediately upon study entry or following a period of time in the Observation Period, were titrated to a dose ranging between 30 mg up to 180 mg BID, the highest dose tested in Example 2.

[2] = injectable formulations (IV or IM or SC); cited from earlier work
[3] = Patients With At Least 6 Months of Treatment N = 18
[4] = Patients With At Least 9 Months of Treatment N = 15

## Oc1ccc2c3c1OC1[C@@H](O)CC[C@@]4(O)[C@@H](C2)N(CC2CCC2)CC[C@]314 (stereo partly drawn) [Nalbuphine, 17-(cyclobutylmethyl)-4,5α-epoxymorphinian-3, 6α, 14-triol, hydrochloride]
[1]; All Patients N = 36
  VRS Itch Improvement Category 1 Grade Better, baseline to last observed value, patients (%): 16 (44.4%)
  VRS Itch Improvement Category 1 Grade Worse, baseline to last observed value, patients (%): 0
  VRS Itch Improvement Category 2-4 Grades Worse, baseline to last observed value, patients (%): 0
  VRS Itch Improvement Category 2 Grades Better, baseline to last observed value, patients (%): 9 (25.0%)
  VRS Itch Improvement Category 3 Grades Better, baseline to last observed value, patients (%): 1 (2.8%)
  VRS Itch Improvement Category 4 Grades Better, baseline to last observed value, patients (%): 0
  VRS Itch Improvement Category No Change, baseline to last observed value, patients (%): 3 (8.3%)
[1]; Completers N = 14
  VRS Itch Improvement Category 1 Grade Better, baseline to last observed value, patients (%): 5 (35.7%)
  VRS Itch Improvement Category 1 Grade Worse, baseline to last observed value, patients (%): 0
  VRS Itch Improvement Category 2-4 Grades Worse, baseline to last observed value, patients (%): 0
  VRS Itch Improvement Category 2 Grades Better, baseline to last observed value, patients (%): 7 (50.0%)
  VRS Itch Improvement Category 3 Grades Better, baseline to last observed value, patients (%): 0
  VRS Itch Improvement Category 4 Grades Better, baseline to last observed value, patients (%): 0
  VRS Itch Improvement Category No Change, baseline to last observed value, patients (%): 2 (14.3%)
[1]; [3]
  VRS Itch Improvement Category 1 Grade Better, baseline to last observed value, patients (%): 6 (33.3%)
  VRS Itch Improvement Category 1 Grade Worse, baseline to last observed value, patients (%): 0
  VRS Itch Improvement Category 2-4 Grades Worse, baseline to last observed value, patients (%): 0
  VRS Itch Improvement Category 2 Grades Better, baseline to last observed value, patients (%): 9 (50.0%)
  VRS Itch Improvement Category 3 Grades Better, baseline to last observed value, patients (%): 1 (5.6%)
  VRS Itch Improvement Category 4 Grades Better, baseline to last observed value, patients (%): 0
  VRS Itch Improvement Category No Change, baseline to last observed value, patients (%): 2 (11.1%)
[1]; [4]
  VRS Itch Improvement Category 1 Grade Better, baseline to last observed value, patients (%): 6 (40.0%)
  VRS Itch Improvement Category 1 Grade Worse, baseline to last observed value, patients (%): 0
  VRS Itch Improvement Category 2-4 Grades Worse, baseline to last observed value, patients (%): 0
  VRS Itch Improvement Category 2 Grades Better, baseline to last observed value, patients (%): 7 (46.7%)
  VRS Itch Improvement Category 3 Grades Better, baseline to last observed value, patients (%): 0
  VRS Itch Improvement Category 4 Grades Better, baseline to last observed value, patients (%): 0
  VRS Itch Improvement Category No Change, baseline to last observed value, patients (%): 2 (13.3%)
[1]; Study Week 3, N=34
  VRS Itch Mean (SD) Change from Baseline: −0.6 (0.9)
  VRS Itch Visit Mean (SD): 2.1 (1.1)
[1]; Study Week 5, N=33
  VRS Itch Mean (SD) Change from Baseline: −0.9 (1.0)
  VRS Itch Visit Mean (SD): 1.8 (1.0)
[1]; Study Week 9, N=30
  VRS Itch Mean (SD) Change from Baseline: −0.9 (0.8)
  VRS Itch Visit Mean (SD): 1.7 (0.9)
[1]; Study Week 13, N=25
  VRS Itch Mean (SD) Change from Baseline: −1.1 (0.8)
  VRS Itch Visit Mean (SD): 1.5 (0.8)
[1]; Study Week 17, N=25
  VRS Itch Mean (SD) Change from Baseline: −1.2 (1.2)
  VRS Itch Visit Mean (SD): 1.4 (1.0)
[1]; Study Week 21, N=22
  VRS Itch Mean (SD) Change from Baseline: −1.2 (0.8)
  VRS Itch Visit Mean (SD): 1.4 (0.7)
[1]; Study Week 26, N=21
  VRS Itch Mean (SD) Change from Baseline: −1.2 (0.9)
  VRS Itch Visit Mean (SD): 1.4 (0.9)
[1]; Study Week 30, N=20
  VRS Itch Mean (SD) Change from Baseline: −1.5 (0.8)
  VRS Itch Visit Mean (SD): 1.1 (0.8)
[1]; Study Week 34, N=18
  VRS Itch Mean (SD) Change from Baseline: −1.2 (0.8)
  VRS Itch Visit Mean (SD): 1.4 (0.6)
[1]; Study Week 38, N=17
  VRS Itch Mean (SD) Change from Baseline: −1.2 (0.7)
  VRS Itch Visit Mean (SD): 1.4 (0.6)
[1]; Study Week 42, N=17
  VRS Itch Mean (SD) Change from Baseline: −1.4 (0.6)
  VRS Itch Visit Mean (SD): 1.2 (0.6)
[1]; Study Week 46, N=17
  VRS Itch Mean (SD) Change from Baseline: −1.4 (0.6)
  VRS Itch Visit Mean (SD): 1.2 (0.7)
[1]; Study Week 50, N=15
  VRS Itch Mean (SD) Change from Baseline: −1.5 (0.7)
  VRS Itch Visit Mean (SD): 1.1 (0.6)
[2]
  half-life: 2 to 3 h
